Source: ChEMBL document CHEMBL3046135, “Iodine (III)-mediated synthesis of some 2-aryl/hetarylbenzoxazoles as antibacterial/antifungal agents” (2010)
The source made the active and inactive calls. The rule behind the calls is not given here.

What was measured:
Assay type in all cases: functional
Aspergillus niger [1] = assay: Antifungal activity against Aspergillus niger at 100 ug/ml after 96 hr
Aspergillus flavus [2] = assay: Antifungal activity against Aspergillus flavus at 100 ug/ml after 96 hr
Aspergillus flavus [3] = assay: Antifungal activity against Aspergillus flavus at 50 ug/ml after 96 hr
Pseudomonas putida [4] = assay: Antibacterial activity against Pseudomonas putida at 10 ug/ml after 24 hr by agar well diffusion method
Pseudomonas putida [5] = assay: Antibacterial activity against Pseudomonas putida at 100 ug/ml after 24 hr by agar well diffusion method
Bacillus subtilis [6] = assay: Antibacterial activity against Bacillus subtilis MTCC 121 at 10 ug/ml after 24 hr by agar well diffusion method
Bacillus subtilis [7] = assay: Antibacterial activity against Bacillus subtilis MTCC 121 at 100 ug/ml after 24 hr by agar well diffusion method
Aspergillus niger [8] = assay: Antifungal activity against Aspergillus niger at 50 ug/ml after 96 hr
Escherichia coli [9] = assay: Antibacterial activity against Escherichia coli MTCC 51 at 50 ug/ml after 24 hr by agar well diffusion method
Pseudomonas putida [10] = assay: Antibacterial activity against Pseudomonas putida at 50 ug/ml after 24 hr by agar well diffusion method
Aspergillus niger [11] = assay: Antifungal activity against Aspergillus niger at 10 ug/ml after 96 hr
Bacillus subtilis [12] = assay: Antibacterial activity against Bacillus subtilis MTCC 121 at 50 ug/ml after 24 hr by agar well diffusion method
Aspergillus flavus [13] = assay: Antifungal activity against Aspergillus flavus at 10 ug/ml after 96 hr
[14] = test system: Geobacillus stearothermophilus; assay: Antibacterial activity against Geobacillus stearothermophilus MTCC 8508 at 100 ug/ml after 24 hr by agar well diffusion method
[15] = test system: Geobacillus stearothermophilus; assay: Antibacterial activity against Geobacillus stearothermophilus MTCC 8508 at 10 ug/ml after 24 hr by agar well diffusion method
[16] = test system: Geobacillus stearothermophilus; assay: Antibacterial activity against Geobacillus stearothermophilus MTCC 8508 at 50 ug/ml after 24 hr by agar well diffusion method
Escherichia coli [17] = assay: Antibacterial activity against Escherichia coli MTCC 51 at 10 ug/ml after 24 hr by agar well diffusion method
Escherichia coli [18] = assay: Antibacterial activity against Escherichia coli MTCC 51 at 100 ug/ml after 24 hr by agar well diffusion method

c1csc(-c2nc3ccccc3o2)c1
inhibition at 100 µg/mL (Aspergillus niger [1]): 82.3% | inhibition at 100 µg/mL (Aspergillus flavus [2]): 88.5% | inhibition at 50 µg/mL (Aspergillus flavus [3]): 63.1% | diameter of the inhibition zone (DIZ) (Pseudomonas putida [4]): 9.66% | diameter of the inhibition zone (DIZ) (Pseudomonas putida [5]): 33.33% | diameter of the inhibition zone (DIZ) (Bacillus subtilis [6]): 12.66% | diameter of the inhibition zone (DIZ) (Bacillus subtilis [7]): 31.72% | inhibition at 50 µg/mL (Aspergillus niger [8]): 64.7% | diameter of the inhibition zone (DIZ) (Escherichia coli [9]): 26.28% | diameter of the inhibition zone (DIZ) (Pseudomonas putida [10]): 24.34% | inhibition at 10 µg/mL (Aspergillus niger [11]): 41.7% | diameter of the inhibition zone (DIZ) (Bacillus subtilis [12]): 21.26% | inhibition at 10 µg/mL (Aspergillus flavus [13]): 21.1% | diameter of the inhibition zone (DIZ) [14]: 31.33% | diameter of the inhibition zone (DIZ) [15]: 10.33% | diameter of the inhibition zone (DIZ) [16]: 20.43% | diameter of the inhibition zone (DIZ) (Escherichia coli [17]): 11.66% | diameter of the inhibition zone (DIZ) (Escherichia coli [18]): 36.66%

Cc1ccsc1-c1nc2cc(Cl)ccc2o1 [5-CHLORO-2-(3-METHYLTHIOPHEN-2-YL)BENZO[D]OXAZOLE]
inhibition at 100 µg/mL (Aspergillus niger [1]): 76.5% | inhibition at 100 µg/mL (Aspergillus flavus [2]): 84.2% | inhibition at 50 µg/mL (Aspergillus flavus [3]): 36.8% | diameter of the inhibition zone (DIZ) (Pseudomonas putida [4]): 12.12% | diameter of the inhibition zone (DIZ) (Pseudomonas putida [5]): 35.06% | diameter of the inhibition zone (DIZ) (Bacillus subtilis [6]): 10.34% | diameter of the inhibition zone (DIZ) (Bacillus subtilis [7]): 29.33% | inhibition at 50 µg/mL (Aspergillus niger [8]): 47% | diameter of the inhibition zone (DIZ) (Escherichia coli [9]): 24.56% | diameter of the inhibition zone (DIZ) (Pseudomonas putida [10]): 25.67% | inhibition at 10 µg/mL (Aspergillus niger [11]): 17.5% | diameter of the inhibition zone (DIZ) (Bacillus subtilis [12]): 21.67% | inhibition at 10 µg/mL (Aspergillus flavus [13]): 21.1% | diameter of the inhibition zone (DIZ) [14]: 31.84% | diameter of the inhibition zone (DIZ) [15]: 12.66% | diameter of the inhibition zone (DIZ) [16]: 23.44% | diameter of the inhibition zone (DIZ) (Escherichia coli [17]): 10.33% | diameter of the inhibition zone (DIZ) (Escherichia coli [18]): 33.17%

Cc1ccc(-c2nc3cc(Cl)ccc3o2)s1 [5-CHLORO-2-(5-METHYLTHIOPHEN-2-YL)BENZO[D]OXAZOLE]
inhibition at 100 µg/mL (Aspergillus niger [1]): 71.9% | inhibition at 100 µg/mL (Aspergillus flavus [2]): 37.5% | inhibition at 50 µg/mL (Aspergillus flavus [3]): 24.9% | diameter of the inhibition zone (DIZ) (Pseudomonas putida [4]): inactive | diameter of the inhibition zone (DIZ) (Pseudomonas putida [5]): 32.66% | diameter of the inhibition zone (DIZ) (Bacillus subtilis [6]): inactive | diameter of the inhibition zone (DIZ) (Bacillus subtilis [7]): 16.66% | inhibition at 50 µg/mL (Aspergillus niger [8]): 63.9% | diameter of the inhibition zone (DIZ) (Escherichia coli [9]): 17.44% | diameter of the inhibition zone (DIZ) (Pseudomonas putida [10]): 18.33% | inhibition at 10 µg/mL (Aspergillus niger [11]): 12.4% | diameter of the inhibition zone (DIZ) (Bacillus subtilis [12]): 10.33% | inhibition at 10 µg/mL (Aspergillus flavus [13]): 13.7% | diameter of the inhibition zone (DIZ) [14]: 18.47% | diameter of the inhibition zone (DIZ) [15]: inactive | diameter of the inhibition zone (DIZ) [16]: 12.66% | diameter of the inhibition zone (DIZ) (Escherichia coli [17]): inactive | diameter of the inhibition zone (DIZ) (Escherichia coli [18]): 31.74%
